In patent publication US11453703B2, “Heterotandem bicyclic peptide complexes” (BicycleTX Limited, priority 2018, dated 2022):
Where two headings read alike, the source gives them in different places. Starred links: 1 amine or outer side, 2 acyl side, 3 side chain; linkers in the order of their positions; H or OH if unused. Positions of bridges follow the written chain, without caps; N, C: chain ends. Non-standard residues stand in square brackets, D forms with d. Chains are numbered I, II in the order given. X1 = O=C(CCc1cn(CCOCCOCCOCCOCCOCCOCCOCCOCCOCCOCCOCCOCCC(=O)[*:2])nn1)NCCC(=O)[*:1]; TATA = O=C(CC[*:1])N1CN(C(=O)CC[*:2])CN(C(=O)CC[*:3])C1; 1Nal = N[C@@H](Cc1cccc2ccccc12)C(=O)O; Hyp = O=C(O)[C@@H]1C[C@@H](O)CN1; hArg = N=C(N)NCCCC[C@H](N)C(=O)O; tBuAla = CC(C)(C)C[C@H](N)C(=O)O; Nle = CCCC[C@H](N)C(=O)O; Sar = CNCC(=O)O

Columns and labels:
CD137 [1] = biological target: T1, CD137 (Homo sapiens, UniProt Q07011); test: CD137 reporter assay, co-culture with EphA2 tumour cells; format: cell-based; design: host or cells: Jurkat reporter cells
Method: Culture medium referred to as R1 media is prepared by adding 1% FBS to RPMI-1640 (component of Promega kit CS196005). Serial dilutions of test articles in R1 are prepared in a sterile 96 well-plate. Use 25 μl per well of test articles or R1 (as a background control) to designated wells in white cell culture plate. Tumour cells* are harvested and resuspended at a concentration of 400,000 cells/mL in R1 media. Twenty five (25) μL/well tumour cells are used in white cell culture plate. Jurkat cells (Promega kit CS196005, 0.5 mL) are thawed in the water bath and then added to 5 ml pre-warmed R1 medium. Twenty five (25) μL/well Jurkat cells are used in white cell culture plate. Incubate the cells and test articles for 6h at 37° C., 5% CO2. At the end of 6 h, add 75 μl/well Bio-Glo™ (Promega) and incubate for 10 min before reading luminescence in a plate reader (Clariostar, BMG). The fold change relative to cells (Jurkat cells+Cell line used in co-culture) is calculated and plotted in GraphPad Prism as log(agonist) vs response to determine EC50 (nM) and Fold Induction over background (Max)

CD137 [2] = biological target: T1, CD137; test: CD137 reporter assay, co-culture with Nectin-4 tumour cells; format: cell-based; design: host or cells: Jurkat reporter cells;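 note: jurkat reporter cells co-cultured with tumour cells and test article for 6 h, luminescence signal relative to Jurkat plus tumour cells lacking test article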
[3] = tumour target Nectin4, co-culture with H1376, 6 h

T1 sequence (Q07011 24-255): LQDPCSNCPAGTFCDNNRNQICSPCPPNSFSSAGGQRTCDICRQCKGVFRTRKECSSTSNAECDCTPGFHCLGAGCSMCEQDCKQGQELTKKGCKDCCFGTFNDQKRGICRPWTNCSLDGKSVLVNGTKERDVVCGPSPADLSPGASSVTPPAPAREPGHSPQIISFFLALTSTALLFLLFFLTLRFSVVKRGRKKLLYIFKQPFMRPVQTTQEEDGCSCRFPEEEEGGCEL

Molecule	Fold Induction over Background (CD137 [2]; [3]) [fold]	EC50 (CD137 [2]) [nM]	other results
CCCC[C@@H]1NC(=O)[C@H](Cc2ccc(O)cc2)NC(=O)[C@@H]2CCCN2C(=O)[C@H](CC(=O)O)NC(=O)[C@H](C)NC(=O)[C@H](Cc2ccccc2)NC(=O)[C@@H]2CSCCC(=O)N3CN(CN(C3)C(=O)CCSC[C@@H](C(=O)N[C@@H](CNC(=O)CCOCCOCCOCCOCCOCCOCCOCCOCCOCCOCCOCCOCCn3cc(CCC(=O)NCCC(=O)N(C)CC(=O)N(C)CC(=O)N(C)CC(=O)N(C)CC(=O)N(C)CC(=O)N(C)CC(=O)N(C)CC(=O)N(C)CC(=O)N(C)CC(=O)N(C)CC(=O)N[C@@H](C)C(=O)N[C@@H](CCCCNC(=N)N)C(=O)N[C@@H](CC(=O)O)C(=O)N[C@H]4CSCCC(=O)N5CN6CN(C5)C(=O)CCSC[C@H](NC(=O)[C@H](CC(C)C)NC(=O)[C@@H]5CCCN5C(=O)[C@H](CC(N)=O)NC(=O)[C@H](C(C)C)NC(=O)[C@H](CC(C)C)NC(=O)[C@@H]5C[C@@H](O)CN5C4=O)C(=O)N[C@@H](CC(C)C)C(=O)N[C@@H](Cc4c[nH]cn4)C(=O)N4CCC[C@H]4C(=O)N[C@H](CC(=O)O)C(=O)N[C@@H](Cc4c[nH]c5ccccc45)C(=O)N[C@@H](CCCCNC(=N)N)C(=O)N[C@H](C(N)=O)CSCCC6=O)nn3)C(N)=O)NC1=O)C(=O)CCSC[C@H](NC(=O)[C@H](C)NC(C)=O)C(=O)N[C@@H]([C@@H](C)CC)C(=O)N[C@@H](CCC(=O)O)C(=O)N[C@@H](CCC(=O)O)C(=O)NCC(=O)N[C@@H](CCC(N)=O)C(=O)N[C@@H](Cc1ccc(O)cc1)C(=O)N2 [BCY7985]			induction of CD137 cell activity (CD137 [1]; Promega CD137 luciferase reporter assay, in the presence of EphA2-expressing HT1080 cells (FIG. 3)): strong induction of CD137 cell activity; CD137 induction (CD137 [1]; in the absence of HT1080 cells (FIG. 3)): no CD137 induction; Fold Induction over Background (CD137 [1]; tumour target EphA2, co-culture with SC-OV-3, 6 h): 15 fold
CCCC[C@@H]1NC(=O)[C@H](Cc2ccc(O)cc2)NC(=O)[C@@H]2CCCN2C(=O)[C@H](CC(=O)O)NC(=O)[C@H](C)NC(=O)[C@H](Cc2ccccc2)NC(=O)[C@@H]2CSCCC(=O)N3CN(CN(C3)C(=O)CCSC[C@@H](C(=O)N[C@@H](CNC(=O)CCc3cn(CCOCCOCCOCCOCCOCCOCCOCCOCCOCCOCCOCCOCCC(=O)NCCC(=O)N(C)CC(=O)N(C)CC(=O)N(C)CC(=O)N(C)CC(=O)N(C)CC(=O)N(C)CC(=O)N(C)CC(=O)N(C)CC(=O)N(C)CC(=O)N(C)CC(=O)NCCCC[C@H]4NC(=O)[C@H](Cc5cccc6ccccc56)NC(=O)[C@@H]5CCCN5C(=O)[C@@H](NC(C)=O)CSCCC(=O)N5CN6CN(C5)C(=O)CCSC[C@H](NC4=O)C(=O)N[C@@H](CCSC)C(=O)N[C@@H](CCCCNC(=N)N)C(=O)N[C@@H](CC(=O)O)C(=O)N[C@@H](Cc4c[nH]c5ccccc45)C(=O)N[C@@H](CO)C(=O)N[C@@H]([C@@H](C)O)C(=O)N4CCC[C@H]4C(=O)N4C[C@H](O)C[C@H]4C(=O)N[C@@H](Cc4c[nH]c5ccccc45)C(=O)N[C@H](C(N)=O)CSCCC6=O)nn3)C(N)=O)NC1=O)C(=O)CCSC[C@H](NC(C)=O)C(=O)N[C@@H](CC(C)(C)C)C(=O)N1CCC[C@H]1C(=O)N[C@@H](CCC(=O)O)C(=O)N[C@H](C)C(=O)N1CCC[C@H]1C(=O)N[C@@H](Cc1ccc(O)cc1)C(=O)N2 [BCY10917]	54		
CCCC[C@@H]1NC(=O)[C@H](Cc2ccc(O)cc2)NC(=O)[C@@H]2CCCN2C(=O)[C@H](CC(=O)O)NC(=O)[C@H](C)NC(=O)[C@H](Cc2ccccc2)NC(=O)[C@@H]2CSCCC(=O)N3CN(CN(C3)C(=O)CCSC[C@@H](C(=O)N[C@@H](CNC(=O)CCc3cn(CCOCCOCCOCCOCCOCCC(=O)NCCC(=O)N(C)CC(=O)N(C)CC(=O)N(C)CC(=O)N(C)CC(=O)N(C)CC(=O)N(C)CC(=O)N(C)CC(=O)N(C)CC(=O)N(C)CC(=O)N(C)CC(=O)NCCCC[C@H]4NC(=O)[C@H](Cc5cccc6ccccc56)NC(=O)[C@@H]5CCCN5C(=O)[C@@H](NC(C)=O)CSCCC(=O)N5CN6CN(C5)C(=O)CCSC[C@H](NC4=O)C(=O)N[C@@H](CCSC)C(=O)N[C@@H](CCCCNC(=N)N)C(=O)N[C@@H](CC(=O)O)C(=O)N[C@@H](Cc4c[nH]c5ccccc45)C(=O)N[C@@H](CO)C(=O)N[C@@H]([C@@H](C)O)C(=O)N4CCC[C@H]4C(=O)N4C[C@H](O)C[C@H]4C(=O)N[C@@H](Cc4c[nH]c5ccccc45)C(=O)N[C@H](C(N)=O)CSCCC6=O)nn3)C(N)=O)NC1=O)C(=O)CCSC[C@H](NC(C)=O)C(=O)N[C@@H](CC(C)(C)C)C(=O)N1CCC[C@H]1C(=O)N[C@@H](CCC(=O)O)C(=O)N[C@H](C)C(=O)N1CCC[C@H]1C(=O)N[C@@H](Cc1ccc(O)cc1)C(=O)N2 [BCY11020]	47		
CCCC[C@@H]1NC(=O)[C@H](Cc2ccc(O)cc2)NC(=O)[C@@H]2CCCN2C(=O)[C@H](CC(=O)O)NC(=O)[C@H](C)NC(=O)[C@H](Cc2ccccc2)NC(=O)[C@@H]2CSCCC(=O)N3CN(CN(C3)C(=O)CCSC[C@@H](C(=O)N[C@@H](C)C(N)=O)NC1=O)C(=O)CCSC[C@H](NC(C)=O)C(=O)N[C@@H](CC(C)(C)C)C(=O)N1CCC[C@H]1C(=O)N[C@@H](CCCCNC(=O)CCc1cn(CC(=O)N[C@H]3CSCCC(=O)N4CN5CN(C4)C(=O)CCSC[C@H](NC(=O)[C@@H](CC(=O)O)NC(=O)[C@H](Cc4cccc6ccccc46)NC(=O)[C@@H]4CCCN4C3=O)C(=O)N[C@@H](CCSC)C(=O)N[C@@H](CCCCNC(=N)N)C(=O)N[C@@H](CC(=O)O)C(=O)N[C@@H](Cc3c[nH]c4ccccc34)C(=O)N[C@@H](CO)C(=O)N[C@@H]([C@@H](C)O)C(=O)N3CCC[C@H]3C(=O)N3C[C@H](O)C[C@H]3C(=O)N[C@@H](Cc3c[nH]c4ccccc34)C(=O)N[C@H](C(N)=O)CSCCC5=O)nn1)C(=O)N[C@H](C)C(=O)N1CCC[C@H]1C(=O)N[C@@H](Cc1ccc(O)cc1)C(=O)N2 [BCY11373]			Fold Induction over Background (CD137 [2]): 74 fold; EC50 (CD137 [2]; tumour target Nectin4, co-culture with H1376, 6 h, read-out: EC50): 0.16 nM
CCCC[C@@H]1NC(=O)[C@H](Cc2ccc(O)cc2)NC(=O)[C@@H]2CCCN2C(=O)[C@H](CC(=O)O)NC(=O)[C@H](C)NC(=O)[C@H](Cc2ccccc2)NC(=O)[C@@H]2CSCCC(=O)N3CN(CN(C3)C(=O)CCSC[C@@H](C(=O)N[C@@H](C)C(N)=O)NC1=O)C(=O)CCSC[C@H](NC(C)=O)C(=O)N[C@@H](CC(C)(C)C)C(=O)N1CCC[C@H]1C(=O)N[C@@H](CCC(=O)O)C(=O)N[C@H](CCCCNC(=O)CCc1cn(CC(=O)N[C@H]3CSCCC(=O)N4CN5CN(C4)C(=O)CCSC[C@H](NC(=O)[C@@H](CC(=O)O)NC(=O)[C@H](Cc4cccc6ccccc46)NC(=O)[C@@H]4CCCN4C3=O)C(=O)N[C@@H](CCSC)C(=O)N[C@@H](CCCCNC(=N)N)C(=O)N[C@@H](CC(=O)O)C(=O)N[C@@H](Cc3c[nH]c4ccccc34)C(=O)N[C@@H](CO)C(=O)N[C@@H]([C@@H](C)O)C(=O)N3CCC[C@H]3C(=O)N3C[C@H](O)C[C@H]3C(=O)N[C@@H](Cc3c[nH]c4ccccc34)C(=O)N[C@H](C(N)=O)CSCCC5=O)nn1)C(=O)N1CCC[C@H]1C(=O)N[C@@H](Cc1ccc(O)cc1)C(=O)N2 [BCY11374]	72	0.091	
CCCC[C@@H]1NC(=O)[C@H](Cc2ccc(O)cc2)NC(=O)[C@@H]2CCCN2C(=O)[C@H](CC(=O)O)NC(=O)[C@H](C)NC(=O)[C@H](Cc2ccccc2)NC(=O)[C@@H]2CSCCC(=O)N3CN(CN(C3)C(=O)CCSC[C@@H](C(=O)N[C@@H](CNC(=O)CCc3cn(CC(=O)N[C@H]4CSCCC(=O)N5CN6CN(C5)C(=O)CCSC[C@H](NC(=O)[C@@H](CC(=O)O)NC(=O)[C@H](Cc5cccc7ccccc57)NC(=O)[C@@H]5CCCN5C4=O)C(=O)N[C@@H](CCSC)C(=O)N[C@@H](CCCCNC(=N)N)C(=O)N[C@@H](CC(=O)O)C(=O)N[C@@H](Cc4c[nH]c5ccccc45)C(=O)N[C@@H](CO)C(=O)N[C@@H]([C@@H](C)O)C(=O)N4CCC[C@H]4C(=O)N4C[C@H](O)C[C@H]4C(=O)N[C@@H](Cc4c[nH]c5ccccc45)C(=O)N[C@H](C(N)=O)CSCCC6=O)nn3)C(N)=O)NC1=O)C(=O)CCSC[C@H](NC(C)=O)C(=O)N[C@@H](CC(C)(C)C)C(=O)N1CCC[C@H]1C(=O)N[C@@H](CCC(=O)O)C(=O)N[C@H](C)C(=O)N1CCC[C@H]1C(=O)N[C@@H](Cc1ccc(O)cc1)C(=O)N2 [BCY11375]	72	0.23	
I: [Sar][Sar][Sar][Sar][Sar][Sar][Sar][Sar][Sar][Sar]CP[1Nal][dD]CM[hArg]DWSTP[Hyp]WC-NH2 / II: Ac-C[tBuAla]PE[dK]PYCFADPY[Nle]CA-NH2 (linker I:11-I:15-I:25, II:1-II:8-II:15 via TATA; linker I:N-II:5 via X1) [BCY10569]	52	1.2	
I: [Sar][Sar][Sar][Sar][Sar][Sar][Sar][Sar][Sar][Sar]CP[1Nal][dD]CM[hArg]DWSTP[Hyp]WC-NH2 / II: Ac-C[tBuAla]PK[dA]PYCFADPY[Nle]CA-NH2 (linker I:11-I:15-I:25, II:1-II:8-II:15 via TATA; linker I:N-II:4 via X1) [BCY10567]	45		
